Our source for the T/C values is PubChem BioAssay AID192 (DTP/NCI, 2004).

Toxic doses and inconclusive results are not listed.

For the test, the system named is BDF1 mice, B16 melanoma ip, median survival T/C. Kind of test: NCI In Vivo Anticancer Drug Screen. Data for tumor model B16 Melanoma (intraperitoneal) in B6D2F1 (BDF1) mice. The note with it: endpoint: median survival time, higher = longer survival. The essentials:
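Read-out: survival or tumor size, given as treated/control ratio. Controls received vehicle only; animals bore transplantable tumors.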

The mark [1] stands for this setting: dose: 100.0 mg/kg/injection, schedule: Q01DX009 (ip), vehicle: Klucel (hydroxypropylcellulose) (HPC).
The mark [2] stands for this setting: dose: 100.0 mg/kg/injection, schedule: Q01DX009 (ip), vehicle: saline with Tween-80.
[3] abbreviates: dose: 200.0 mg/kg/injection, schedule: Q01DX009 (ip), vehicle: saline with Tween-80.
Where [4] appears, read: dose: 400.0 mg/kg/injection, schedule: Q01DX009 (ip), vehicle: saline with Tween-80.

For `CCCCC(=O)OC1CC2CCC1(C)C2(C)C` (stereo not drawn), under setting [1], the T/C was 90 % of control.

`CCc1cc(C)cc(OC(=O)Nc2ccc(Cl)c(Cl)c2)c1`: the T/C runs as follows: under setting [2], 101 % of control; under setting [3], 92 % of control; under setting [4], 87 % of control.

Take `CC[C@@]1(O)C[C@H](OC2CC(N(C)C)C(OC3CC(O)C(OC4CC(O)C(O)C(C)O4)C(C)O3)C(C)O2)c2c(cc3c(c2O)C(=O)c2c(O)ccc(O)c2C3=O)[C@H]1C(=O)OC` (stereo partly drawn): the T/C by setting is: (dose: 0.03 mg/kg/injection, schedule: Q01DX001 (ip), vehicle: saline) 105 % of control; (dose: 0.05 mg/kg/injection, schedule: Q01DX001 (ip), vehicle: saline) 118 % of control; (dose: 0.1 mg/kg/injection, schedule: Q01DX001 (ip), vehicle: saline) 119 % of control; (dose: 0.25 mg/kg/injection, schedule: Q01DX009 (ip), vehicle: other) 161 % of control; (dose: 0.5 mg/kg/injection, schedule: Q01DX009 (ip), vehicle: other) 161 % of control; (dose: 0.8 mg/kg/injection, schedule: Q01DX001 (ip), vehicle: saline) 163 % of control. The T/C reads like this: (dose: 1.0 mg/kg/injection, schedule: Q01DX009 (ip), vehicle: alcohol) 210 % of control; (dose: 1.0 mg/kg/injection, schedule: Q01DX009 (ip), vehicle: other) 188 % of control; (dose: 1.6 mg/kg/injection, schedule: Q01DX001 (ip), vehicle: saline) 168 % of control; (dose: 2.0 mg/kg/injection, schedule: Q01DX009 (ip), vehicle: alcohol) 216 % of control; (dose: 2.16 mg/kg/injection, schedule: Q01DX001 (ip), vehicle: water) 106 % of control; (dose: 3.6 mg/kg/injection, schedule: Q01DX001 (ip), vehicle: water) 97 % of control. In addition, the T/C is 100 % of control (dose: 6.0 mg/kg/injection, schedule: Q01DX001 (ip), vehicle: water) and 89 % of control (dose: 10.0 mg/kg/injection, schedule: Q01DX001 (ip), vehicle: water).

As for `CC(C)C(N)C(=O)Nc1nncs1` (stereo not drawn), the T/C by setting is: (dose: 12.5 mg/kg/injection, schedule: Q01DX009 (ip), vehicle: saline) 103 % of control; (dose: 25.0 mg/kg/injection, schedule: Q01DX009 (ip), vehicle: saline) 114 % of control; (dose: 50.0 mg/kg/injection, schedule: Q01DX009 (ip), vehicle: saline) 108 % of control; (dose: 100.0 mg/kg/injection, schedule: Q01DX009 (ip), vehicle: saline) 102 % of control.

`CCc1cccc2ccccc12`: the T/C reads like this: (dose: 75.0 mg/kg/injection, schedule: Q01DX009 (ip), vehicle: Klucel (hydroxypropylcellulose) (HPC)) 118 % of control; (dose: 150.0 mg/kg/injection, schedule: Q01DX009 (ip), vehicle: Klucel (hydroxypropylcellulose) (HPC)) 121 % of control; (dose: 300.0 mg/kg/injection, schedule: Q01DX009 (ip), vehicle: Klucel (hydroxypropylcellulose) (HPC)) 106 % of control.

Take `Cc1nc2ccccc2nc1CBr`: the T/C is, setting by setting: (dose: 0.4 mg/kg/injection, schedule: Q01DX009 (ip), vehicle: saline with Tween-80) 104 % of control; (dose: 0.8 mg/kg/injection, schedule: Q01DX009 (ip), vehicle: saline with Tween-80) 104 % of control; (dose: 0.8 mg/kg/injection, schedule: Q01DX009 (ip), vehicle: saline) 95 % of control; (dose: 1.6 mg/kg/injection, schedule: Q01DX009 (ip), vehicle: Klucel (hydroxypropylcellulose) (HPC)) 93 % of control; (dose: 1.6 mg/kg/injection, schedule: Q01DX009 (ip), vehicle: saline) 93 % of control; (dose: 3.12 mg/kg/injection, schedule: Q01DX009 (ip), vehicle: Klucel (hydroxypropylcellulose) (HPC)) 100 % of control. The T/C is 119 % of control (dose: 3.2 mg/kg/injection, schedule: Q01DX009 (ip), vehicle: saline with Tween-80); 95 % of control (dose: 3.2 mg/kg/injection, schedule: Q01DX009 (ip), vehicle: saline); 87 % of control (dose: 6.25 mg/kg/injection, schedule: Q01DX009 (ip), vehicle: Klucel (hydroxypropylcellulose) (HPC)); 113 % of control (dose: 6.25 mg/kg/injection, schedule: Q01DX009 (ip), vehicle: saline with Tween-80); 102 % of control (dose: 6.3 mg/kg/injection, schedule: Q01DX009 (ip), vehicle: saline); 96 % of control (dose: 12.5 mg/kg/injection, schedule: Q01DX009 (ip), vehicle: Klucel (hydroxypropylcellulose) (HPC)). Moreover, the T/C (dose: 12.5 mg/kg/injection, schedule: Q01DX009 (ip), vehicle: saline with Tween-80) was 108 % of control.

With `Nc1nc(SCc2ccccc2)c2ncn(C3CC(O)C(CO)O3)c2n1` (stereo not drawn), the T/C by setting is: (dose: 4.25 mg/kg/injection, schedule: Q01DX009 (ip), vehicle: saline) 111 % of control; (dose: 8.5 mg/kg/injection, schedule: Q01DX009 (ip), vehicle: saline) 113 % of control; (dose: 17.0 mg/kg/injection, schedule: Q01DX009 (ip), vehicle: saline) 94 % of control; (dose: 34.0 mg/kg/injection, schedule: Q01DX009 (ip), vehicle: saline) 93 % of control.

Turning to `On1cnc(=S)c2[nH]cnc21`, the T/C is, setting by setting: (dose: 100.0 mg/kg/injection, schedule: Q01DX009 (ip), vehicle: saline sonified) 106 % of control; (dose: 200.0 mg/kg/injection, schedule: Q01DX009 (ip), vehicle: saline sonified) 104 % of control; (dose: 400.0 mg/kg/injection, schedule: Q01DX009 (ip), vehicle: saline sonified) 90 % of control.

`COc1cc2c(c(O)c1OC)-c1c(cc(OC)c(OC)c1OC)CC(C)C(C)C2` (stereo not drawn): the T/C is 101 % of control (dose: 11.25 mg/kg/injection, schedule: Q01DX009 (ip), vehicle: saline + Tween-80 + alcohol); 105 % of control (dose: 22.5 mg/kg/injection, schedule: Q01DX009 (ip), vehicle: saline + Tween-80 + alcohol); 97 % of control (dose: 45.0 mg/kg/injection, schedule: Q01DX009 (ip), vehicle: saline + Tween-80 + alcohol); 106 % of control (dose: 90.0 mg/kg/injection, schedule: Q01DX009 (ip), vehicle: saline + Tween-80 + alcohol).

Turning to `COc1ccccc1NC(N)=S`, the T/C was 110 % of control (dose: 25.0 mg/kg/injection, schedule: Q01DX009 (ip), vehicle: Klucel (hydroxypropylcellulose) (HPC)); 103 % of control (dose: 50.0 mg/kg/injection, schedule: Q01DX009 (ip), vehicle: Klucel (hydroxypropylcellulose) (HPC)); 100 % of control under setting [1].

For `CN(C)CCCc1c2ccccc2nc2ccc(Cl)cc12`, the T/C is, setting by setting: (dose: 12.5 mg/kg/injection, schedule: Q04DX003 (ip), vehicle: saline) 117 % of control; (dose: 25.0 mg/kg/injection, schedule: Q04DX003 (ip), vehicle: saline) 114 % of control; (dose: 50.0 mg/kg/injection, schedule: Q04DX003 (ip), vehicle: saline) 108 % of control.

Consider `CC[C@]1(O)C[C@H](OC2CC(N(C)C)C(OC3CC(O)C(O)C(C)O3)C(C)O2)c2c(cc3c(c2O)C(=O)c2c(O)ccc(O)c2C3=O)[C@H]1C(=O)OC` (stereo partly drawn), for which the T/C is 113 % of control (dose: 0.2 mg/kg/injection, schedule: Q01DX009 (ip), vehicle: carboxymethylcellulose (CMC)); 120 % of control (dose: 0.25 mg/kg/injection, schedule: Q01DX009 (ip), vehicle: saline with Tween-80); 94 % of control (dose: 0.4 mg/kg/injection, schedule: Q01DX009 (ip), vehicle: carboxymethylcellulose (CMC)); 159 % of control (dose: 1.0 mg/kg/injection, schedule: Q01DX009 (ip), vehicle: saline with Tween-80); 179 % of control (dose: 2.0 mg/kg/injection, schedule: Q01DX009 (ip), vehicle: saline with Tween-80).

With `COC12C(COC(N)=O)C3=C(C(=O)C(C)=C(N)C3=O)N1CC1C2N1C` (stereo not drawn), the T/C is, setting by setting: (dose: 0.25 mg/kg/injection, schedule: Q01DX009 (ip), vehicle: saline) 120 % of control; (dose: 0.5 mg/kg/injection, schedule: Q01DX009 (ip), vehicle: saline) 123 % of control; (dose: 1.0 mg/kg/injection, schedule: Q01DX009 (ip), vehicle: saline) 114 % of control; (dose: 2.0 mg/kg/injection, schedule: Q01DX009 (ip), vehicle: Klucel (hydroxypropylcellulose) (HPC)) 106 % of control; (dose: 4.0 mg/kg/injection, schedule: Q01DX009 (ip), vehicle: Klucel (hydroxypropylcellulose) (HPC)) 124 % of control.

Turning to `NC(=O)CN1C(=O)c2ccccc2C1=O`, the T/C under setting [2] is 97 % of control, the T/C under setting [3] was 104 % of control and the T/C under setting [4] is 97 % of control.
